Test results published in patent publication US20230218652A1, “ANTIFUNGAL PRODRUGS” (CENTRE NATIONAL DE LA RECHERCHE SCIENTIFIQUE, priority 2020, published 2023).
“Also recorded” adds a separate entry of the source. Read-outs that look alike come from different tables or passages of the source.

What was measured:
[1] = tested on: HeLa cells; experiment: Human cells cytotoxicity, HeLa; assay type: cell-based; conditions: for IC50: HeLa cell line
Protocol: (§1) Half maximal inhibitory concentration (IC50) required to inhibit 50% of the in vitro cell growth or viability were determined with broth microdilution method according to the European committee on antimicrobial susceptibility testing recommendations (protocols E.DEF 7.3.1 for Candida spp.) and according to a certified internal procedure to the laboratory IICiMed (for Leishmania spp.) (Le Pape, et al. Acta Parasitologica 2002, 47, 79-81).
(§2) The different strains, isolates and cell lines used are listed below: • Candida albicans clinical strain (IICiMed number CAAL93) • Candida albicans clinical strain (IICiMed number CAAL121) • Candida albicans reference strain SC5314 (IICiMed number CAAL146) • Leishmania major reference isolate MHOM/IL/81/BNI (IICiMed number LEMA1) • A549 cell line reference ATCC® CCL-185 (carcinoma epithelial cells from lung) • HeLa cell line reference
(§3) Growth or cell viability was performed on flat-bottomed microplate, firstly appreciated by visual reading and always confirmed using a Bio-Rad iMark microplate absorbance reader to measure the absorbance of the plate at 595 nm or using a resazurin salt cell viability assay with a Packard fluorocount microplate reader BF10000 with halogen light source to measure the fluorescence at 590 nm after excitation at 530 nm. Results represent the mean (±the standard error of the mean SEM if available) calculated from at least two independent experiments performed each in triplicate on one or several strains. The values are expressed with the corresponding pathogens and are represented in μM.

[2] = tested on: Cryptococcus gattii; experiment: Antifungal activity in vitro; assay type: cell-based
Protocol: as §1, §3

[3] = tested on: Cryptococcus neoformans; experiment: Antifungal activity in vitro; assay type: cell-based
Protocol: as §1, §3

[4] = tested on: Galleria mellonella; experiment: Toxicity on the Galleria mellonella model; assay type: in vivo; conditions: uninfected larvae, dose 2 mg·kg-1
Protocol: The larval model represents a rapid and practical tool for assessing the intrinsic toxicity of an active substance. See Le Pape et al, 2019, Int J Infect Dis. 2019 April; 81:85-90 for more details concerning the model. The larvae were incubated with AmB, AmB prodrug (Compound 1) and vehicle. At the dose of 2 mg·kg-1, AmB was very toxic leading to a 40% survival of the treated group. In comparison, at an equivalent dose, its prodrug was much less toxic with a percentage survival of 80%.

[5] = tested on: Cryptococcus neoformans; experiment: In vivo anti-Cryptococcus activity in Galleria mellonella model (C. neoformans); conditions: dose 2 mg·kg-1
Protocol: (§4) This model also constitutes a screening model and a good alternative to the traditional studies on murine models for the evaluation of the activity of antifungal molecules. The AmB prodrug of the invention (Compound 1) was evaluated for its antifungal efficacy against Cryptococcus neoformans and Cr. gattii. […] In the absence of treatment, all larvae died after 6 days and 5 days, respectively. For Cryptococcus neoformans, at a dose of 2 mg·kg-1, amphotericin B led to 50% survival and its prodrug was also effective with a percentage survival of 30% at an equivalent dose.

[6] = tested on: Cr. gattii; experiment: In vivo anti-Cryptococcus activity in Galleria mellonella model (Cr. gattii)
Protocol: as §4
In the case of Cr. gattii, amphotericin B and the prodrug led to 30% and 20% survival respectively.

[7] = tested on: Leishmania major (amastigote); experiment: Antiparasitic activity in vitro (intracellular amastigote); assay type: cell-based; conditions: intracellular amastigotes
Protocol: as §1, with “79-81). […]” for “79-81).”
as §3, with “The values are expressed with the corresponding pathogens and are represented in μM.” left out

[8] = tested on: Candida albicans (blastospores); experiment: Antifungal activity in vitro, broth microdilution (blastospores); assay type: cell-based; conditions: mean ± SEM
Protocol: as §1, with “79-81). […]” for “79-81).”
as §3, with “The values are expressed with the corresponding pathogens and are represented in μM.” left out

[9] = tested on: Candida albicans (filamented yeasts); experiment: Antifungal activity in vitro, broth microdilution (filamented yeasts); assay type: cell-based; conditions: mean ± SEM
Protocol: as §1, with “79-81). […]” for “79-81).”
as §3, with “The values are expressed with the corresponding pathogens and are represented in μM.” left out

[10] = tested on: Leishmania major (promastigote); experiment: Antiparasitic activity in vitro (promastigote); assay type: cell-based; conditions: mean ± SEM
Protocol: as §1, with “79-81). […]” for “79-81).”
as §3, with “The values are expressed with the corresponding pathogens and are represented in μM.” left out

[11] = tested on: C. albicans blastoconidia; experiment: Mouse model of C. albicans blastoconidia infection; assay type: in vivo, mice; conditions: 1 mg/kg i.p. once daily for 3 days, listed as AmB prodrug
Protocol: Mice were immunosuppressed by subcutaneous injection of 30 mg/kg prednisolone one day before challenge. On day 0, mice were infected intravenously C. albicans blastoconidia. One hour after infection, mice were treated intraperitoneally once daily with 1 mg/kg body weight of Fungizone®, Ambisome® and AmB prodrug (Compound 1, FIG. 1A) for 3 consecutive days. The control group received sterile distillated water (vehicle). Survival was monitored for 14 days post inoculation. Differences in cohorts were analyzed by the log-rank test. On day 14, all mice were euthanized and their kidneys were excised and weighed. Tissues were homogenized and serially diluted 10- to 1000-fold in sterile saline, then plated onto Sabouraud dextrose agar and incubated for 48 h to determine the number of CFUs. Tissue fungal burden was expressed as average log CFUs/gram of tissue. Differences in mean CFUs in kidneys were compared with the vehicle control using a one-way ANOVA with a post-hoc Tukey test. A P value of <0.05 was considered statistically significant.

[12] = Human cells cytotoxicity, HeLa; assay type: cell-based; conditions: human, HeLa cells; HeLa cell line
Protocol: as §1, §2, §3

[13] = Human cells cytotoxicity, hPBMC; assay type: cell-based; conditions: human peripheral blood mononuclear cells (hPBMC); human PBMC
[14] = Human cells cytotoxicity, A549; assay type: cell-based; conditions: human, A549 cells (ATCC CCL-185, lung carcinoma epithelial cells), pneumocyte line A549
Protocol: as §1, with “79-81). […]” for “79-81).”
as §3, with “The values are expressed with the corresponding pathogens and are represented in μM.” left out

[15] = tested on: A549; experiment: Human cells cytotoxicity, A549; assay type: cell-based; conditions: pneumocyte line A549
Protocol: as §1, with “79-81). […]” for “79-81).”
as §3, with “The values are expressed with the corresponding pathogens and are represented in μM.” left out

[16] = Aqueous stability in the absence of enzyme; assay type: physicochemical; conditions: for aqueous stability (in words): aqueous medium/buffer, 37° C., absence of the enzyme
Protocol: Enzymatic Release and Aqueous Stability In vitro enzymatic hydrolysis was carried out with commercial β-N-acetylhexosaminidase from Canavalia ensiformis E.C. 3.2.1.52 (22.8 units·mg^−1 protein, suspension in 2.5 M ammonium sulfate, pH 7.0). Using a VWR® Cooling Thermal Shake Touch and monitoring by analytical LC. Prodrug 1 was incubated with the enzyme according to the table below: […]

C[C@@H]1[C@H](O)[C@@H](C)/C=C/C=C/C=C/C=C/C=C/C=C/C=C/[C@H](O[C@@H]2O[C@H](C)[C@@H](O)[C@H](N)[C@@H]2O)C[C@@H]2O[C@](O)(C[C@@H](O)C[C@@H](O)[C@H](O)CC[C@@H](O)C[C@@H](O)CC(=O)O[C@H]1C)C[C@H](O)[C@H]2C(=O)O [Amphotericin B, amphotericin B, reference compound] gave an IC50 [1] of 23.29 ± 0.11 µM, an IC50 ([1]; listed as AmB) of about 23 µM and an IC50 [2] of 0.04 µM. The IC50 [3] was 0.03 µM, the “survival of the treated group (toxicity)” value [4] was 40% and the “percentage survival, larvae infected with Cryptococcus neoformans” value [5] was 50%. For the same molecule, the “survival, larvae infected with Cr. gattii” value [6] was 30%, the IC50 [7] was under 0.1 µM and the IC50 [8] was 0.36 ± 0.04 µM. For the same molecule, the IC50 [9] was 0.31 ± 0.01 µM and the IC50 [10] was 0.31 ± 0.02 µM.
With CC(=O)N[C@H]1[C@H](Oc2ccc(COC(=O)N[C@@H]3[C@H](O)[C@H](O[C@H]4/C=C/C=C/C=C/C=C/C=C/C=C/C=C/[C@H](C)[C@@H](O)[C@@H](C)[C@H](C)OC(=O)C[C@H](O)C[C@H](O)CC[C@@H](O)[C@H](O)C[C@H](O)C[C@]5(O)C[C@H](O)[C@@H](C(=O)O)[C@H](C4)O5)O[C@H](C)[C@H]3O)cc2[N+](=O)[O-])O[C@H](CO)[C@@H](O)[C@@H]1O [Compound 1] the “fungal burden of the kidney” value ([11]; day 14, vs control group) was “significantly reduction of the burden; also recorded: significant decrease in the kidney fungal load”, the survival ([11]; immunosuppressed mice, 14 days monitoring, vs vehicle, 1 mg/kg) was “statically improved survival; also recorded: significant improvement in survival” and the IC50 [12] was over 100 µM. For the same molecule, the “toxicity on HELA cells (in words)” value [1] was “does not exhibit any significant toxicity”, the IC50 ([2]; Cryptococcus gattii) was 0.6 µM and the IC50 ([3]; Cryptococcus neoformans) was 0.25 µM. For the same molecule, the “survival of the treated group (toxicity)” value [4] was 80%, the “percentage survival, larvae infected with Cryptococcus neoformans” value [5] was 30% and the IC50 [13] was over 50 µM. The “survival, larvae infected with Cr. gattii” value [6] was 20%, the IC50 [14] was over 50 µM and the IC50 [15] was over 100 µM. For the same molecule, the IC50 ([7]; Leishmania major) was under 0.1 µM, the “aqueous stability (in words)” value ([16]; listed as AmB prodrug) was “stable” and the “aqueous stability (in words)” value ([16]; listed as prodrug) was “stable”. The “aqueous stability (in words)” value ([16]; listed as prodrug 1) was “good aqueous stability”, the half-life ([16]; aqueous solution without enzyme, aqueous, pH 7.4, 37° C., read-out: t1/2 aq, pH 7.4, 37° C.) was over 24 h and the IC50 ([8]; Candida albicans) was 0.43 ± 0.02 µM. For the same molecule, the IC50 ([9]; Candida albicans) was 0.42 ± 0.01 µM and the IC50 ([10]; Leishmania major) was 0.27 ± 0.06 µM.
